Holding throughout (type): in vivo
For assay [1], the system named is Puccinia recondita. Nature of the assay: Puccinia recondita, brown rust of wheat, preventative test on wheat leaf segments. To be noted: foliar, 192 h, application rate 200 ppm, assessed 8 days after inoculation, 0=no control, 100%=complete control, read-out: preventive fungicidal activity, percent efficacy relative to untreated infected control. On the procedure: (§1) Puccinia recondite: Brown Rust of Wheat, Preventative Test Puccinia recondita (Brown rust): Wheat leaf segments are placed on agar in multiwell plates (24-well format) and sprayed with the formulated (2% Dimethylsulfoxid, 0,025% Tween 20) test solutions. After drying, the leaf disks are inoculated with a spore suspension of the fungus (45'000 conidia/ml). After appropriate incubation, the preventive fungicidal activity of a compound is assessed 8 days after inoculation as disease damage on the leaf disks and calculated as percent efficacy relative to untreated infected control (0=no control of Puccinia recondita, 100%=complete control). In this test, compounds listed in Table P above show good activity.

The test system of assay [2] is Puccinia recondita. Nature of the assay: Puccinia recondita, brown rust of wheat, curative test on wheat leaf segments. As to conditions: foliar, 192 h, application rate 200 ppm, wheat leaf segments treated one day after inoculation, assessed 8 days after inoculation, 0=no control, 100%=complete control, read-out: curative fungicidal activity, percent efficacy relative to untreated infected control.

Assay [3] deals with Erysiphe graminis f.sp. tritici. Nature of the assay: Erysiphe graminis f.sp. tritici, wheat powdery mildew, preventative test on wheat leaf segments. As to conditions: Blumeria graminis, foliar, 168 h, application rate 200 ppm, assessed 7 days after inoculation, 0=no control, 100%=complete control, read-out: preventive fungicidal activity, percent efficacy relative to untreated infected control. On the procedure: Erysiphe graminis f.sp. tritici: Wheat Powdery Mildew, Preventative Test Erysiphe graminis f.sp. tritici (Wheat powdery mildew): Wheat leaf segments are placed on agar in multiwell plates (24-well format) and sprayed with the formulated (2% Dimethylsulfoxid, 0,025% Tween 20) test solutions. After drying, the leaf disks are inoculated with spores of the fungus (50 conidia/mm2). After appropriate incubation, the preventive fungicidal activity of a compound is assessed 7 days after inoculation as disease damage on the leaf disks and calculated as percent efficacy relative to untreated infected control. (0=no control of Erysiphe graminis f.sp. tritici, 100%=complete control). In this test, compounds listed in Table P above show good activity.

A further assay has as its system Pyrenophora teres. Nature of the assay: Pyrenophora teres, net blotch of barley, preventative test on barley leaf segments. To be noted: foliar, 96 h, application rate 200 ppm, assessed 4 days after inoculation, 0=no control, 100%=complete control, read-out: preventive fungicidal activity, percent efficacy relative to untreated infected control. On the procedure:
as §1, with “Pyrenophora teres: Net Blotch” for “Puccinia recondite: Brown Rust”, “Barley,” for “Wheat,”, “Method Description Pyrenophora teres (Net blotch): Barley” for “Puccinia recondita (Brown rust): Wheat”, “(25'000” for “(45'000”, “4” for “8”, “Pyrenophora teres,” for “Puccinia recondita,”

Assay [4] relates to Erysiphe graminis f.sp. hordei. Nature of the assay: Erysiphe graminis f.sp. hordei, powdery mildew of barley, curative test on barley leaf segments. To be noted: Blumeria graminis, foliar, 168 h; application rate 200 ppm; barley leaf segments sprayed 24 h after inoculation; assessed 7 days after inoculation; 0=no control, 100%=complete control; read-out: curative fungicidal activity, percent efficacy relative to untreated infected control. On the procedure:
Erysiphe graminis f.sp. hordei: Powdery Mildew of Barley, Curative Test Erysiphe graminis f.sp. hordei (Barley powdery mildew): Barley leaf segments are placed on agar in multiwell plates (24-well format). The leaf disks are inoculated with spores of the fungus (120 conidia/mm2). After 24 h the leaf disks are sprayed with the formulated (2% Dimethylsulfoxid, 0,025% Tween 20) test solutions. After appropriate incubation, the curative fungicidal activity of a compound is assessed 7 days after inoculation as disease damage on the leaf disks and calculated as percent efficacy relative to untreated infected control (0=no control of Erysiphe graminis f.sp. hordei, 100%=complete control). In this test, compounds listed in Table P above show good activity.

Another assay relates to Plasmopara viticola. Nature of the assay: Plasmopara viticola, downy mildew of grapevine, preventative test on grape vine leaf disks. As to conditions: application rate 200 ppm, assessed 6 days after inoculation, 0=no control, 100%=complete control. On the procedure: Plasmopara viticola: Downy Mildew of Grapevine, Preventative Test Plasmopara viticola (downy mildew of grapevine): Grape vine leaf disks are placed on agar in multiwell plates (24-well format) and sprayed with the formulated (2% Dimethylsulfoxid, 0,025% Tween 20) test solutions. After drying, the leaf disks are inoculated with a spore suspension of the fungus (80′000 conidia/ml). After appropriate incubation, the preventive fungicidal activity of a compound is assessed 6 days after inoculation as disease damage on the leaf disks and calculated as percent efficacy relative to untreated infected control. (0=no control of Plasmopara viticola, 100%=complete control). In this test, compounds listed in Table P above show good activity.

SMILES strings stand for the structures.

In the case of `CCN(C)/C=N/c1cc(C#C[Si](C)(C)C)c(Oc2ccc(Cl)c(C(F)(F)F)c2)nc1C` [P.31], the pest or weed control at 200 ppm in the assay with Puccinia recondita [1] and in the assay with Puccinia recondita [2] was ≥ 50% in each case.
On to `CCN(C)/C=N/c1cc(Cl)c(OCCCC(C)C)nc1Br` [P.64], for which the pest or weed control at 200 ppm (in assay [3]; in the assay with Puccinia recondita [1]; in the assay on Puccinia recondita [2]; in the assay on Pyrenophora teres) was ≥ 50% throughout.
Turning to `CCN(C)/C=N/c1cc(OC)c(OCCCC(C)C)nc1Br` [P.70], the pest or weed control at 200 ppm in the assay on Puccinia recondita [1] and with Puccinia recondita [2] was ≥ 50% each time.
For `Cc1cc(/N=C/N(C)C)cnc1Oc1cccc(C(C)(C)C)c1` [P.14], in assay [4], the pest or weed control at 200 ppm was ≥ 50%.
For `CCN(C)/C=N/c1cc(-c2ccc(F)cc2)c(Oc2ccc(Cl)c(C(F)(F)F)c2)nc1C` [P.30], the pest or weed control at 200 ppm in assay [3] was ≥ 50%.
`Cc1cc(Oc2ccc(Cl)c(C(F)(F)F)c2)ncc1/N=C/N(C)C` [P.06]: the pest or weed control at 200 ppm in assay [4] was ≥ 50%.
On the same count and under the same terms, in the case of `C#CC(C)N(C)/C=N/c1ccc(Oc2ccc(Cl)cc2Cl)nc1` (centres unmarked) [P.04] it was ≥ 50%; in that of `CN(C)/C=N/c1ccc(Oc2ncc(C(F)(F)F)cc2Cl)nc1` [P.15], ≥ 50%; in that of `CCN(C)/C=N/c1cnc(Oc2ccc(Cl)c(C(F)(F)F)c2)c(C)c1` [P.19], ≥ 50%.
In the case of `CCN(C)/C=N/c1cc(Br)c(OCCCC(C)C)nc1C` [P.26], the pest or weed control at 200 ppm (in assay [3]; in the assay with Puccinia recondita [1]; in the assay on Puccinia recondita [2]) was ≥ 50% throughout.
As to `CC(C)c1cc(Oc2ccc(Cl)c(Cl)c2)nc(C(C)C)c1/N=C/N(C)C` [P.05], the pest or weed control at 200 ppm in the assay on Pyrenophora teres was ≥ 50%.
Consider `CCN(C)/C=N/c1cc(Cl)c(OCCCC(C)C)nc1C#N` [P.81], for which the pest or weed control at 200 ppm in the assay on Puccinia recondita [2] is ≥ 50%.
As to `CCN(C)/C=N/c1ccc(Oc2ccc(Cl)cc2Cl)nc1` [P.01], in assay [4], the pest or weed control at 200 ppm is ≥ 50%.
Regarding `Cc1nc(OCCCC(C)C)c(Br)cc1NC(=S)N(C)C(C)C` [P.35], the pest or weed control at 200 ppm (in assay [3]; in the assay on Puccinia recondita [1]; in the assay on Puccinia recondita [2]) was ≥ 50% in each case.
Regarding `CCN(C)/C=N/c1cc(Br)c(Oc2ccc3ccccc3c2)nc1C` [P.77], the pest or weed control at 200 ppm (in assay [3]; in the assay with Puccinia recondita [1]; in the assay with Puccinia recondita [2]) was ≥ 50% throughout.
Regarding `CCN(C)/C=N/c1ccc(Oc2ccc(Cl)c(C(F)(F)F)c2)nc1C` [P.07], the pest or weed control at 200 ppm (in assay [3]; in assay [4]; in the assay with Puccinia recondita [1]) was ≥ 50% throughout.
Consider `CCN(C)/C=N/c1cc(Cl)c(OCCCC(C)C)nc1C` [P.46], for which the pest or weed control at 200 ppm in the assay with Pyrenophora teres is ≥ 50%.
As to `CCN(C)/C=N/c1cc(Br)c(Oc2cc(Cl)c3ncc(Br)cc3c2)nc1C` [P.79], the pest or weed control at 200 ppm in the assay with Puccinia recondita [1] was ≥ 50%.
In the case of `CCN(C)/C=N/c1cnc(Oc2cccc(C(C)(C)C)c2)c(C)c1` [P.17], in assay [4], the pest or weed control at 200 ppm is ≥ 50%.
In the case of `Cc1cc(/N=C/N(C)C)cnc1Oc1ccc(Cl)c(C(F)(F)F)c1` [P.09], the pest or weed control at 200 ppm (in assay [3]; in the assay on Pyrenophora teres) was ≥ 50% throughout.
For the compound `CCN(C)/C=N/c1cnc(Oc2ccc(Cl)c(C(F)(F)F)c2)cc1C` [P.11], the pest or weed control at 200 ppm (in assay [4]; with Puccinia recondita [1]) was ≥ 50% each time.
As for `CCN(C)/C=N/c1cc(Br)c(OCCCC(C)C)nc1Br` [P.69], the pest or weed control at 200 ppm (in assay [3]; in the assay on Puccinia recondita [2]; in the assay on Pyrenophora teres) was ≥ 50% in each case.
Turning to `CCN(C)/C=N/c1cc(Br)c(Oc2ccc3ncc(Br)cc3c2)nc1C` [P.78], the pest or weed control at 200 ppm in assay [3] is ≥ 50%.
With `CN(C)/C=N/c1ccc(Oc2ccc(Cl)cc2Cl)nc1` [P.03], the pest or weed control at 200 ppm in assay [4] was ≥ 50%.
In the case of `CCN(C)/C=N/c1cc(C#N)c(Oc2cc(F)cc(F)c2)nc1C` [P.41], the pest or weed control at 200 ppm in the assay on Puccinia recondita [2] was ≥ 50%.
In the case of `CN(C)/C=N/c1ccc(Oc2ccc(Cl)cc2)nc1` [P.22], the pest or weed control at 200 ppm in assay [3] was ≥ 50%.
Take `Cc1cc(/N=C/N(C)c2ccccn2)cnc1Oc1ccc(Cl)c(C(F)(F)F)c1` [P.16]: the pest or weed control at 200 ppm in assay [4] was ≥ 50%.
Turning to `CCN(C)/C=N/c1cc(OC)c(Oc2ccc(Cl)c(C(F)(F)F)c2)nc1Br` [P.68], the pest or weed control at 200 ppm in assay [3] was ≥ 50%.
On to `CCN(C)/C=N/c1cc(OC)c(OCCCC(C)C)nc1Cl` [P.73], for which the pest or weed control at 200 ppm (in assay [3]; in the assay with Puccinia recondita [1]; in the assay with Puccinia recondita [2]; in the assay on Pyrenophora teres) was ≥ 50% throughout.
In the case of `COc1ccc(Oc2ccc(/N=C/N(C)C)cn2)cc1` [P.21], in assay [3], the pest or weed control at 200 ppm was ≥ 50%.
For `CCN(C)/C=N/c1cc(Br)c(Oc2cccc3ccccc23)nc1C` [P.76], the pest or weed control at 200 ppm (in assay [3]; in the assay on Puccinia recondita [1]; in the assay with Puccinia recondita [2]) was ≥ 50% each time.
As for `CCN(C)/C=N/c1ccc(OCCCC(C)C)nc1C` [P.28], the pest or weed control at 200 ppm (in assay [3]; in the assay on Puccinia recondita [1]; with Puccinia recondita [2]) was ≥ 50% each time.
Turning to `CCN(C)/C=N/c1cc(OC)c(Oc2ccc(Cl)c(C(F)(F)F)c2)nc1Cl` [P.63], the pest or weed control at 200 ppm in assay [3] was ≥ 50%.
Take `CCN(C)/C=N/c1cnc(Oc2cccc(C(F)(F)F)c2)cc1C` [P.36]: the pest or weed control at 200 ppm in the assay with Puccinia recondita [2] is ≥ 50%.
For the compound `CCN(C)/C=N/c1cc(Br)c(OC2CCc3cc(OC)ccc3C2)nc1C` (centres unmarked) [P.82], the pest or weed control at 200 ppm (in assay [3]; with Puccinia recondita [1]; with Puccinia recondita [2]) was ≥ 50% each time.
For `CCN(C)/C=N/c1cc(Br)c(OC2CCc3ccccc3C2)nc1C` (centres unmarked) [P.62], the pest or weed control at 200 ppm (in assay [3]; with Puccinia recondita [1]; with Puccinia recondita [2]; with Pyrenophora teres) was ≥ 50% each time.
Take `CCN/C=N/c1cnc(Oc2ccc(Cl)c(C(F)(F)F)c2)c(C)c1` [P.08]: the pest or weed control at 200 ppm (in assay [4]; in the assay on Pyrenophora teres) was ≥ 50% each time.
Take `CCN(C)/C=N/c1cnc(Oc2cccc(C(F)(F)F)c2)c(Br)c1C` [P.51]: the pest or weed control at 200 ppm in the assay on Puccinia recondita [1] is ≥ 50%.
For the compound `C#CC(C)N(C)/C=N/c1cnc(Oc2ccc(Cl)c(C(F)(F)F)c2)c(C)c1` (centres unmarked) [P.10], in the assay on Plasmopara viticola, the “preventive fungicidal activity, percent efficacy relative to untreated infected control” value was “at least 50%”.
With `CCN(C)/C=N/c1cc(Br)c(OCCCC(C)C)nc1OC` [P.61], the pest or weed control at 200 ppm (in assay [3]; in the assay with Puccinia recondita [1]; in the assay on Puccinia recondita [2]) was ≥ 50% in each case.
Consider `CCN(C)/C=N/c1cc(Cl)c(OCCCC(C)C)nc1OC` [P.59], for which the pest or weed control at 200 ppm (in assay [3]; in the assay on Puccinia recondita [1]; in the assay with Puccinia recondita [2]) was ≥ 50% throughout.
With `CCN(C)/C=N/c1ccc(OCCCC(C)C)nc1OC` [P.58], the pest or weed control at 200 ppm in the assay on Puccinia recondita [1] and in the assay with Puccinia recondita [2] was ≥ 50% each time.

The values above are taken from patent US8513286B2, “Iminipyridine derivatives and their uses as microbiocides” (Syngenta Crop Protection LLC, priority 2007, dated 2013).
